Where two headings read alike, the source gives them in different places. Blank lines part the entries; values can stand above or below the compound they belong to.
Key:
[1] = Phase 1 study part 2: metabolite identification and profiling in plasma, urine and feces; format: in vivo, human; details: mean across subjects
Procedure: To determine the most appropriate sampling pools for metabolite identification/profiling, plasma, urine, and fecal samples were pooled based on mass balance data obtained as described above. Plasma samples were pooled for individual subjects by time points that represented at least 80% of the plasma total radioactivity, as well as pooled across subjects before dosing and at 4-hour and 8-hour time points. Urine samples were pooled from 0 to 24 hours for individual subjects and across subjects for predose and 0- to 6-hour intervals. Fecal samples were pooled for individual subjects depending on time points that represented at least 80% of the […] total radioactivity and across subjects at 0- to 24- and 24- to 48-hour intervals.
[^14C]-belumosudil concentrations were quantified by LC-MS/MS. Chemical structures were then identified for those radioactive components that accounted for >10% of circulating radioactivity in plasma and >10% of the dose in urine and feces. Radioactive components that represented <10% of circulating radioactivity in plasma and <10% of the dose in urine and feces were also identified. Metabolite identification was then performed using accurate mass positive and negative ion full scan and positive ion product ion analyses. […] Any identified components were compared with [^14C] radiochromatograms to identify the metabolite. Predose plasma and urine pools were used to correct for endogenous components during metabolite identification.

cytochrome P450 CYP3A4 = cytochrome P450 CYP3A4 (Homo sapiens, UniProt P08684); test: In vitro assessments of belumosudil metabolism; format: in vitro ADME
cytochrome P450 CYP3A4, sequence (P08684 whole entry): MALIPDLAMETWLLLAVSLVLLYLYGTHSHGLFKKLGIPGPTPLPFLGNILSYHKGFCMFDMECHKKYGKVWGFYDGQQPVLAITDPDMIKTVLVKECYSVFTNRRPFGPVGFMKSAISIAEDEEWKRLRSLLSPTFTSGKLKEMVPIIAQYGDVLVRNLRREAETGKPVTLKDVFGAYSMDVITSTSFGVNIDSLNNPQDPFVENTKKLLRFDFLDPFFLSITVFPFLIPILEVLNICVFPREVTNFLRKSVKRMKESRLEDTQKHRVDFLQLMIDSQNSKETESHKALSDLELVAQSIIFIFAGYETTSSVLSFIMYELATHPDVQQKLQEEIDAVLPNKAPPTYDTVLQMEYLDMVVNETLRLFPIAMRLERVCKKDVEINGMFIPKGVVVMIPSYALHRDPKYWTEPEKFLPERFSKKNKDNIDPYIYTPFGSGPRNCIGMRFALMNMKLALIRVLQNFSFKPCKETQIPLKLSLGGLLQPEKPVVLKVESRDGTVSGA

ROCK2 = target: T1, ROCK2 (Rattus norvegicus, UniProt Q62868); test: Inhibition of ROCK2 enzymatic activity, immunoabsorbed full length enzyme, S6 kinase substrate peptide, [γ33P]ATP; format: biochemical; details: for Ki: ROCK2
T1 construct: Full length rat ROCK1 and ROCK2 proteins were isolated from various tumor cell lines or tissues by immunoabsorption; endogenous in cells
T1 sequence (Q62868 whole entry): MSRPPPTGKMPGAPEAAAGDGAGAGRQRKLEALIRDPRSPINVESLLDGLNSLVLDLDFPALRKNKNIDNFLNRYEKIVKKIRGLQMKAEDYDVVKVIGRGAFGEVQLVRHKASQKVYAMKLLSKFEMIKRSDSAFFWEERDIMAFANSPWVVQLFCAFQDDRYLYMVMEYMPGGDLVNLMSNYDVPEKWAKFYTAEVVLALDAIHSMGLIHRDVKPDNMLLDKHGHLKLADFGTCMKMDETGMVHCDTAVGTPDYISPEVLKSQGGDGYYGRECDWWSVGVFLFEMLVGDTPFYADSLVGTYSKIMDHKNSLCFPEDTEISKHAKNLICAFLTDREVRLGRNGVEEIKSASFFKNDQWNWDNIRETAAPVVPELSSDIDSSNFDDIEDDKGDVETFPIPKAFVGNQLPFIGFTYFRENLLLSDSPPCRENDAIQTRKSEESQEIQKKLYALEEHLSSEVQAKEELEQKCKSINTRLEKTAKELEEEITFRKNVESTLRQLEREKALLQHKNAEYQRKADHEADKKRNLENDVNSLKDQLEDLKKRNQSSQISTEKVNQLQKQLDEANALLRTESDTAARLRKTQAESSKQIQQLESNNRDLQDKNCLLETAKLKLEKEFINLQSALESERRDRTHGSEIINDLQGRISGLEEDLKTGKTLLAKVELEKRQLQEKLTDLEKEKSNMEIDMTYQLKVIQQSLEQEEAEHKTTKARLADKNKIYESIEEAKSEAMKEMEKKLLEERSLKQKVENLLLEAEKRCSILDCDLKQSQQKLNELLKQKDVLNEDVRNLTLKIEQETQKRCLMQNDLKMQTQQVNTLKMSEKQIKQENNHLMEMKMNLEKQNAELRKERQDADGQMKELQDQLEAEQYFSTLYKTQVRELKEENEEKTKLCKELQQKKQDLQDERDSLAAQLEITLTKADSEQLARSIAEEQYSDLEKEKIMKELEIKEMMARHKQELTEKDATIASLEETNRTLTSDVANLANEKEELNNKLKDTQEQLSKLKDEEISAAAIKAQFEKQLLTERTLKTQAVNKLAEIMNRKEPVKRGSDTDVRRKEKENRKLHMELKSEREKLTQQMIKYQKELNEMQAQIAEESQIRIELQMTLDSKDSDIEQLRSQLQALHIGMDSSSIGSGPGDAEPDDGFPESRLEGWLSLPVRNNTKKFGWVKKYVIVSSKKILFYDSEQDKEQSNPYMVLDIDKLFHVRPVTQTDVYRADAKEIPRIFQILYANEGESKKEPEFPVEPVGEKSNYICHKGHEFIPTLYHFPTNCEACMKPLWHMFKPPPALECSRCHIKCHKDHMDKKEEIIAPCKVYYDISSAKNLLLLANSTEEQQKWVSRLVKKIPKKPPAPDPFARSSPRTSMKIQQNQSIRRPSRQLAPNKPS
Procedure: Full length rat ROCK1 and ROCK2 proteins were isolated from various tumor cell lines or tissues by immunoabsorption to 24-well microtiter plates pre-coated with antibodies specific for each isozyme. Reactions were initiated by the addition of S6 kinase substrate peptide, [γ33P]ATP, and study drug, and incubated at 37° C. for 20 minutes. Reactions were terminated by addition of phosphoric acid and the radioactivity was quantified using standard methods.

Solubility = format: physicochemical; details: in vitro assessments
[2] = Phase 1 study: safety assessments; format: in vivo, human
Procedure: Safety was assessed throughout the study by AEs, vital signs, electrocardiograms, physical examinations, and clinical laboratory tests. The safety population included all subjects who received at least 1 dose of the study drug (oral or IV) in either part of the study.

[3] = Phase 1 study part 1: absolute bioavailability, oral 200-mg tablet plus [14C]-belumosudil IV microtracer, plasma PK; format: in vivo, human; details: for F, AUCinf (absolute bioavailability, AUCinf,oral/AUCinf,IV): dose-adjusted
Procedure: This was a single-center, nonrandomized, open-label, 2-part study in 5 healthy male subjects aged 30 to 65 years. All oral doses were administered following an overnight fast and a standard breakfast on the day of dosing.
(timed to occur at the expected maximum concentration [Cmax]). To determine absolute bioavailability, a microtracer dose was chosen as it negates the need for an IV formulation with good stability. Additionally, due to use of a very low dose, further nonclinical studies such as local tolerance and general toxicology studies were not warranted.
Blood samples for IV [^14C]-belumosudil PK analysis and total radioactivity were collected at −0.25, −0.16, −0.08, 0, 0.08, 0.16, 0.25, 0.5, 0.75, 1, 1.5, 2, 3, 4, 5, 6, 8, 10, 12, 22, 34, and 46 hours after the end of infusion (EOI). All samples were processed to plasma within 30 minutes of collection by centrifugation at 2000 g for 10 minutes at 4° C., and
Total [^14C]-belumosudil concentrations were determined by accelerator mass spectrometry (AMS). […] Selected samples were diluted with commercial plasma to ensure that concentrations would fall within the acceptable range for AMS analysis. The samples were converted to graphite through combustion to CO2 followed by reduction to graphite. The graphite targets were then analyzed by AMS (LLOQ of 0.00489, 0.00557, 0.00485, 0.00402, and 0.00372 ng equiv/mL for individual subjects). All ^14C data was background-corrected based on predose [^14C]-belumosudil concentrations.
Eluate fractions corresponding to [^14C]-belumosudil were collected before AMS analysis (LLOQ of 1.55 pg equiv/mL).
PK parameter estimates were used to calculate absolute bioavailability and metabolite-to-parent ratio.

[4] = Metabolite exposure quantified in clinical trials of the belumosudil development program; format: in vivo, human; details: clinical trials across the belumosudil development program
[5] = arithmetic mean (standard deviation), Part 1, belumosudil after oral 200-mg tablet
[6] = arithmetic mean (standard deviation), Part 1, oral 200-mg tablet vs IV microtracer
[7] = geometric mean (geometric CV %), Part 1, belumosudil after oral 200-mg tablet
[8] = geometric mean (geometric CV %), Part 1, oral 200-mg tablet vs IV microtracer

SMILES: CC(C)NC(=O)COc1cccc(-c2nc(Nc3ccc4[nH]ncc4c3)c3ccccc3n2)c1 [Belumosudil, 2-{3-[4-(1H-indazol-5-ylamino)-2-quinazolinyl]phenoxy}-N-(propan-2-yl) acetamide]
% ROI, feces (mean % contribution to total sample radioactivity) [1]: (29.60) %
% ROI, feces (mean % contribution to total sample radioactivity) ([1]; listed as belumosudil): 30%
% ROI, plasma (mean % contribution to total plasma radioactivity) [1]: P6 (64.17) %
% ROI, plasma (mean % contribution to total plasma radioactivity) ([1]; listed as belumosudil): 64%
enzyme dependence of metabolism (cytochrome P450 CYP3A4): primarily dependent on cytochrome P450 CYP3A4 activity
Ki (ROCK2): 40 ± 5 nM
pH dependence of solubility (Solubility): pH dependent
laboratory, vital sign, electrocardiogram, physical examination findings ([2]; either part of the study): No clinically significant laboratory, vital sign, electrocardiogram, or physical examination findings
deaths, serious AEs, severe AEs, AEs leading to withdrawal ([2]; healthy male subjects, both parts of the study): no deaths, serious AEs, AEs of severe intensity, or AEs leading to subject withdrawal
treatment-emergent AE ([2]; part 1, 200-mg tablet followed by [14C]-belumosudil microtracer infusion, one event, resolved spontaneously 2.5 hours after onset): mild, possibly related rash
treatment-emergent AEs ([2]; part 2, 200-mg [14C]-belumosudil capsule): no treatment-emergent AEs were reported
time at which peak belumosudil concentrations were reached after the oral dose ([3]; Part 1, oral 200-mg tablet): 3 h
AUCextrap [3, 5]: 2.18 (0.919) %
AUCinf [3, 5]: 8890 (4240) ng or ng equiv × h/mL
AUClast [3, 5]: 8730 (4270) ng or ng equiv × h/mL
Clearanance (apparent clearance) [3, 5]: 423 (126) mL/min
Cmax [3, 5]: 1960 (649) ng or ng equiv/mL
F, AUCinf (absolute bioavailability) [3, 6]: 64.5 (10.4) %
F, Cmax (bioavailability) [3, 6]: 23.8 (2.21) %
AUCextrap [3, 7]: 1.95 (64.6); %
AUCinf [3, 7]: 8300 (40.2); ng or ng equiv × h/mL
AUClast [3, 7]: 8120 (41.2); ng or ng equiv × h/mL
Clearanance (apparent clearance) [3, 7]: 402 (40.2); mL/min
Cmax [3, 7]: 1870 (36.7); ng or ng equiv/mL
F, Cmax (bioavailability) [3, 8]: 23.7(9.3); %
F, AUCinf (absolute bioavailability, AUCinf,oral/AUCinf,IV) [3, 8]: 63.7 (17.3); %
F, AUCinf (absolute bioavailability, AUCinf,oral/AUCinf,IV) ([3]; geometric mean (geometric CV %), Part 1, oral 200-mg tablet vs IV microtracer, listed as belumosudil): 63.7%
half-life ([3]; male, human, plasma, other: intravenous and oral, IV and oral dosing comparable, read-out: half-life values following IV and oral dosing): 5 to 6 h
Tmax ([3]; male, human, plasma, po, 200 mg): 2 h
half-life ([3]; male, human, plasma, po, 200 mg, arithmetic mean (standard deviation), Part 1, belumosudil after oral 200-mg tablet, read-out: T1/2 (converted)): 6.05 h
half-life ([3]; male, human, plasma, po, 200 mg, geometric mean (geometric CV %), Part 1, belumosudil after oral 200-mg tablet, read-out: T1/2 (terminal half-life) (converted)): 5.3 h

exposure relative to the parent [4]: < 5%
Ki (ROCK2): 55 ± 2 nM
inhibition of ROCK2 (Ki) relative to belumosudil (ROCK2; fold lower inhibition than belumosudil): comparable
SMILES: NC(=O)COc1cccc(-c2nc(Nc3ccc4[nH]ncc4c3)c3ccccc3n2)c1 [KD025m1, 2-(3-(4-(1H-indazol-5-ylamino)quinazolin-2-yl)phenoxy)acetamide]

Reference: patent publication US11952369B2 (Kadmon Corporation, LLC, priority 2022, dated 2024)
